Tests used:
[1] = test system: Human epidermoid tumors (A431); test: In vivo inhibition of the growth of human epidermoid tumors (A431); settings: for S/T (# of Survivors/# of Treated): Day +21 post tumor staging
Experimental: BALB/c nu/nu female mice (Charles River, Wilmington, Mass.) were used in the in vivo standard pharmacological test procedures. Human epidermoid carcinoma cells A-431 (American Type Culture Collection, Rockville, Md. #CRL-155) were grown in vitro as described above. A unit of 5×10^6 cells were injected subcutaneously into mice. When tumors attained a mass of between 100 and 150 mg, the mice were randomized into treatment groups (day zero). Mice were treated orally (PO) once a day on days 1 through 10 post staging with doses of either 40, 20, 10, 3 or 1 mg/kg/dose of the compound to be evaluated in 0.2% Klucel. Control animals received no drug. Tumor mass was determined every 7 days [(length×width^2)/2] for 28 days post staging. Relative tumor growth (Mean tumor mass on day 7, 14, and 21 divided by the mean tumor mass on day zero) is determined for each treatment group. The % T/C (Tumor/Control) is determined by dividing the relative tumor growth of the treated group by the relative tumor growth of the placebo group and multiplying by 100. A compound is considered to be active if the % T/C is found to be=42%.

[2] = molecular target: T1, EGF-R Kinase (recombinant enzyme) (Homo sapiens, UniProt P00533); test: Inhibition of Epidermal Growth Factor Receptor Kinase (EGF-R) using recombinant enzyme; type: biochemical; settings: RR-SRC peptide substrate
T1 construct: containing the EGFR cDNA encoding amino acids 645-1186 preceded by Met-Ala-(Ris)6; made in house; host or cells: Sf9 insect cells, recombinant baculovirus vHcEGFR52
Experimental: Representative test compounds were evaluated for their ability to inhibit the phosphorylation of the tyrosine residue of a peptide substrate catalyzed by the enzyme epidermal growth factor receptor kinase. […] The enzyme used in this assay is the His-tagged cytoplasmic domain of EGFR. […] A cytoplasmic extract was prepared using 1% Triton X-100 and applied to Ni-NTA column.
Test compounds were made into 10 mg/mL stock solutions in 100% dimethylsulfoxide (DMSO).
The IC50 is the concentration of test compound needed to reduce the total amount of phosphorylated substrate by 50%. The % inhibition of the test compound was determined for at least three different concentrations and the IC50 value was evaluated from the dose response curve.
CPM(control) is in units of counts per minute and was a number expressing the amount of radiolabeled ATP (γ-^33P) incorporated into the RR-SRC peptide substrate by the enzyme after 90 minutes at room temperature in the absence of test compound as measured by liquid scintillation counting. The CPM values were corrected for the background counts produced by ATP in the absence of the enzymatic reaction.

T1 sequence (P00533 669-1210): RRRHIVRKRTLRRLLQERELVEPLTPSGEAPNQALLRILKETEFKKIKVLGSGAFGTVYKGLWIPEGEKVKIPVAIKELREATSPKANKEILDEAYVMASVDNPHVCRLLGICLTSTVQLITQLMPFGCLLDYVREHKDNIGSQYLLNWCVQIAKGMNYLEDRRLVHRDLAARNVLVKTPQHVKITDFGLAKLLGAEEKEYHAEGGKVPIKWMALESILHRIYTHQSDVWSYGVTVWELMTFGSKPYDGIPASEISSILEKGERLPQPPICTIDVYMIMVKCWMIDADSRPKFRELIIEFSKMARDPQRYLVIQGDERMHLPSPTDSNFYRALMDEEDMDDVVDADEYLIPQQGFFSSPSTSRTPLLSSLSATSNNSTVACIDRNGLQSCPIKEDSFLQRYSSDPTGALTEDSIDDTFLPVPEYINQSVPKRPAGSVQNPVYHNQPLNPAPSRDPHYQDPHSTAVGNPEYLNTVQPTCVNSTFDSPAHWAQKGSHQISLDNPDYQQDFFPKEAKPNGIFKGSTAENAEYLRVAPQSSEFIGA

## N#Cc1cnc2cc3c(cc2c1Nc1ccc(F)c(Cl)c1)NCCO3 [Example 7, 9-(3-Chloro-4-fluoroanilino)-2,3-dihydro-1H-[1,4]oxazino[3,2-g]quinoline-8-carbonitrile]
other
  melting point: 244 to 245 °C

## CN(C)C/C=C/C(=O)N1CCOc2cc3ncc(C#N)c(Nc4ccc(F)c(Cl)c4)c3cc21 [Example 9, 9-(3-Chloro-4-fluoroanilino)-1-[(2E)-4-(dimethylamino)-2-butenoyl]-2,3-dihydro-1H-[1,4]oxazino[3,2-g]quinoline-8-carbonitrile]
[1]; 1 mg/kg/dose PO, days 1 through 10
  S/T (# of Survivors/# of Treated): 5/5
[1]; 3 mg/kg/dose PO, days 1 through 10
  S/T (# of Survivors/# of Treated): 5/5
[1]; 10 mg/kg/dose PO, days 1 through 10, Day 21
  RTG (relative tumor growth) Day 21: 11.09
[1]; 10 mg/kg/dose PO, days 1 through 10
  S/T (# of Survivors/# of Treated): 5/5
[1]; 20 mg/kg/dose PO, days 1 through 10
  S/T (# of Survivors/# of Treated): 5/5
[1]; 40 mg/kg/dose PO, days 1 through 10
  S/T (# of Survivors/# of Treated): 5/5
[1]; A431 tumors in mice, PO
  inhibition of tumor growth in vivo (in words): effective inhibitor of tumor growth in vivo

## CN(C)CCCC(=O)N1CCOc2cc3ncc(C#N)c(Nc4ccc(F)c(Cl)c4)c3cc21 [Example 10, 9-(3-Chloro-4-fluoroanilino)-1-[4-(dimethylamino)butanoyl]-2,3-dihydro-1H-[1,4]oxazino[3,2-g]quinoline-8-carbonitrile]
[2]
  IC50: 200 nM
other
  melting point: 165 °C

## N#Cc1cnc2cc3c(cc2c1Nc1ccc(F)c(Cl)c1)N(CCCCCl)CCO3 [Example 11, 1-(4-Chlorobutyl)-9-(3-chloro-4-fluoroanilino)-2,3-dihydro-1H-[1,4]oxazino[3,2-g]quinoline-8-carbonitrile]
other
  melting point: 78 to 79 °C

## CN(C)CCCCN1CCOc2cc3ncc(C#N)c(Nc4ccc(F)c(Cl)c4)c3cc21 [Example 12, 9-(3-Chloro-4-fluoroanilino)-1-[4-(dimethylamino)butyl]-2,3-dihydro-1H-[1,4]oxazino[3,2-g]quinoline-8-carbonitrile]
[2]
  IC50: 5 nM
other
  melting point: 105 °C

## N#Cc1cnc2cc3c(cc2c1Nc1ccc(Cl)cc1Cl)OCCN3 [Example 22, 9-(2,4-Dichloroanilino)-3,4-dihydro-2H-[1,4]oxazino[2,3-g]quinoline-8-carbonitrile]
other
  melting point: 254 to 255 °C

## CCN1CCN(CCCCN2CCOc3cc4c(Nc5ccc(Cl)cc5Cl)c(C#N)cnc4cc32)CC1 [Example 24, 9-(2,4-Dichloroanilino)-4-[4-(4-ethyl-1-piperazinyl)butyl]-3,4-dihydio-2H-[1,4]oxazino[2,3-g]quinoline-8-carbonitrile]
other
  melting point: 97 to 98 °C

— patent publication US6608048B2, “Tricyclic protein kinase inhibitors” (Wyeth Holdings, priority 2000, dated 2003)
